# Source: publication PMC3442999, “Characterization of purified and Xerogel immobilized Novel Lignin Peroxidase produced from Trametes versicolor IBL-04 using solid state medium of Corncobs” (BMC Biotechnology, 2012)
# Tested on: T1, LiP (lignin peroxidase) of T. versicolor IBL-04
# T1 construct: native secreted enzyme purified from solid-state culture on corncobs (ammonium sulfate, Sephadex G-100, DEAE-cellulose); monomer, 30 kDa on SDS and native PAGE
# Test: veratryl alcohol oxidation to veratraldehyde at […] nm, Lineweaver-Burk
# Format: biochemical, Trametes versicolor
# Conditions: free enzyme; H2O2 co-substrate; incubated 15 min at 25°C in citrate phosphate pH 6.0 before assay; 100-1000 μM substrate
compound,measurement,value
COc1ccc(CO)cc1OC [veratryl alcohol],Km,70 µM
